“And” between values parts separate entries of the source, which are not always exact repeats. Identical values can stand only once. Like-named read-outs stand apart in the source and are kept apart here.
Experiments:
HCV = test: EC90 (viral sensitivity); type: cell-based, hepatitis C virus (HCV); settings: Hepatitis C virus
[1] = Simulated steady-state plasma and liver profiles: predicted AUC0-24, Cavg, % Time>EC90, Ctrough,liver/EC90; design: species or system human; settings: 8 or 12 hour dose interval
Text: Fitted parameters were used to compute predicted steady-state AUC0-24 and integrated average steady-state concentrations (Cavg) in plasma and in liver. Three hypothetical liver to plasma ratios (LPR) were considered given the variability seen in various animal species: 8 to 1, 30 to 1, and 100 to 1. The LPR seen in rats was approximately 8:1, LPR in dogs was approximately 25-40:1 and LPR in monkeys was approximately 80-125:1.
Using ADAPT 5, simulated plasma profiles were generated using individual subject fitted parameters and two different dosing regimens, 800 mg Q12H and 500 mg Q8H, dosed to steady-state.
By simulating plasma concentration profiles at steady-state, it is possible to predict ITMN-191 concentrations in liver and then index these to viral sensitivity. Summary statistics for the percentage of a dosing interval for which predicted liver concentrations remain above the EC90 (% Time>EC90) and the ratio of predicted trough concentration in the liver to the EC90 (Ctrough, liver/EC90) are provided in Table 12.

[2] = Compartmental PK model fitted to plasma data of the 400 mg fed cohort; type: in vivo, healthy volunteers (human); settings: median, compartmental PK parameter
Procedure: The compartmental model was constructed to fit the PK data from the 400 mg, fed cohort only. Candidate PK models were fit to plasma data using weighted, non-linear regression implemented in Adapt 5. (1, 2) Each subjects' data were fit separately for a total of 10 fitted profiles. Model discrimination was accomplished according to the “Rule of Parsimony” based on Akaike's Information Criterion. (3, 4)
The most robust fit to the data was obtained using a three-compartment model (one absorptive, two distributive) with first order absorption and elimination. […] No a priori assumptions regarding the number of phases were made; the fit of the observed data and the AIC were used to guide the selection of a one, two, or three-phase absorption.

[3] = Single ascending dose study, fasted and fed: safety and non-compartmental plasma PK; type: in vivo, healthy volunteers (human); settings: for AUC0-inf / Cmax / half-life / Tmax: human, plasma, oral; for Tmax: read-out: Tmax
Procedure: A single ascending dose (SAD) study of the compound 100 was conducted in healthy volunteers. The compound 100 was administered as monotherapy both with and without food. The safety and pharmacokinetic profile of the single dose of the compound 100 was assessed.
Interim, blinded data were used for Pharmacokinetic (PK) study relating to food effects. With the exception of the 400 mg cohort, eight subjects were studied at each dose (single doses of 100, 200, or 800 mg of the sodium salt of the compound 100, which may be referred to herein as ITMN-191, administered in the fasting state). In the 400 mg cohort, ten subjects received single 400 mg doses of ITMN-191 under both fasted and fed conditions with a 5-day washout period between dosing. In the 100 mg cohort, subjects were sampled within 1 hour before dosing and at 0.5, 1, 1.5, 2, 2.5, 3, 4, 6, 8, 12, 18, 24, 32 and 48 hours after dosing. For subsequent cohorts, subjects were sampled within 1 hour before dosing and at 0.25, 0.5, 1, 1.5, 2, 2.5, 3, 4, 6, 8, 12, 18, 24, and 32 hours after dosing. Nominal (not actual) sampling times were used for the analysis. PK samples were analyzed using liquid chromatography-tandem mass spectrometry (LC/MS/MS with API 4000 mass spectrometer) following solid-phase extraction. The upper and lower limits of quantitation (ULOQ and LLOQ) are 100 and 0.01 ng/mL, respectively.
Pharmacokinetic parameter estimates were calculated using non-compartmental methods (implemented using Microsoft Excel®). Half-lives were determined by visual inspection of the log concentration-time plots to choose the terminal phase (minimum of three detectable observations). Using linear regression of the chosen terminal phase observations, elimination rate constants were calculated as the negative slope of the regression line and half-life as the natural log of 2 divided by the elimination rate constant.
Ten subjects received single 1600 mg doses of ITMN-191 under both fasted and fed conditions with a 5-day washout period between dosing. For each condition, subjects were sampled within 1 hour before dosing and at 0.25, 0.5, 1, 1.5, 2, 2.5, 3, 4, 6, 8, 12, 18, 24, and 32 hours after dosing. Pharmacokinetic parameter estimates were calculated using non-compartmental methods. Half-life (t1/2) was determined by visual inspection of the log concentration-time plots to choose the terminal phase (minimum of three detectable observations). Using linear regression of the chosen terminal phase observations, elimination rate constants were calculated as the negative slope and half-life as the natural log of 2 divided by the elimination rate constant.

Structure (SMILES): CC(C)(C)OC(=O)N[C@H]1CCCCC/C=C\[C@@H]2C[C@@]2(C(=O)NS(=O)(=O)C2CC2)NC(=O)[C@@H]2C[C@@H](OC(=O)N3Cc4cccc(F)c4C3)CN2C1=O [ITMN-191]
- EC90 (HCV): 14.1 nM and 0.0106 µg/mL
- accumulation associated with multiple doses [1]: negligible
- half-life ([2]; human, plasma, oral, n = 10, read-out: T1/2,λz (converted)): 1.53 h
- Vd/F ([2]; human, plasma, oral, n = 10, read-out: Vss/F): 2950 L
- CLt/F ([2]; n = 10): 3800 L/h
- Vc/F ([2]; n = 10): 1975 L
- fold increase of median AUC0-inf and Cmax ([3]; 1600 mg fasted versus 800 mg cohort): 3-4 fold
- dose linearity of pharmacokinetics based on AUC0-inf ([3]; dose range of 100-800 mg): linear
- AUC0-inf ([3]; 100 mg, median, single 100 mg dose, fasting state, N=8, read-out: AUC0-inf): 20.4 ng·h/mL
- Cmax ([3]; 100 mg, median, single 100 mg dose, fasting state, N=8, read-out: Cmax): 14.7 ng/mL
- half-life ([3]; 100 mg, median, single 100 mg dose, fasting state, N=8, read-out: T1/2 (converted)): 1.78 h
- Tmax ([3]; 100 mg, median, single 100 mg dose, fasting state, N=8): 0.75 h
- AUC0-inf ([3]; 200 mg, median, single 200 mg dose, fasting state, N=8, read-out: AUC0-inf): 36.8 ng·h/mL
- Cmax ([3]; 200 mg, median, single 200 mg dose, fasting state, N=8, read-out: Cmax): 30.2 ng/mL
- half-life ([3]; 200 mg, median, single 200 mg dose, fasting state, N=8, read-out: T1/2 (converted)): 1.49 h
- Tmax ([3]; 200 mg, median, single 200 mg dose, fasting state, N=8): 0.75 h
- AUC0-inf ([3]; 400 mg, median, single 400 mg dose (Fasted), N=10, read-out: AUC0-inf): 81 ng·h/mL
- Cmax ([3]; 400 mg, median, single 400 mg dose (Fasted), N=10, read-out: Cmax): 63.8 ng/mL
- half-life ([3]; 400 mg, median, single 400 mg dose (Fasted), N=10, read-out: T1/2 (converted)): 1.53 h
- Tmax ([3]; 400 mg, median, single 400 mg dose (Fasted), N=10): 1 h
- AUC0-inf ([3]; 400 mg, median, single 400 mg dose (Fed), N=10, read-out: AUC0-inf): 113 ng·h/mL
- Cmax ([3]; 400 mg, median, single 400 mg dose (Fed), N=10, read-out: Cmax): 56.6 ng/mL
- half-life ([3]; 400 mg, median, single 400 mg dose (Fed), N=10, read-out: T1/2 (converted)): 1.74 h
- Tmax ([3]; 400 mg, median, single 400 mg dose (Fed), N=10): 2.5 h
- AUC0-inf ([3]; 800 mg, 800 mg cohort, fasting, single dose, read-out: median AUC0-inf): 194 ng·h/mL
- Cmax ([3]; 800 mg, 800 mg cohort, fasting, single dose, read-out: median Cmax): 216 ng/mL
- AUC0-inf ([3]; 800 mg, median, single 800 mg dose, fasting state, N=8, read-out: AUC0-inf): 194 ng·h/mL
- Cmax ([3]; 800 mg, median, single 800 mg dose, fasting state, N=8, read-out: Cmax): 216 ng/mL
- half-life ([3]; 800 mg, median, single 800 mg dose, fasting state, N=8, read-out: T1/2 (converted)): 1.91 h
- Tmax ([3]; 800 mg, median, single 800 mg dose, fasting state, N=8): 0.5 h
- AUC0-inf ([3]; 1600 mg, 1600 mg fasted cohort, single dose, read-out: median AUC0-inf): 737 ng·h/mL
- Cmax ([3]; 1600 mg, 1600 mg fasted cohort, single dose, read-out: median Cmax): 685 ng/mL
- AUC0-inf ([3]; 1600 mg, Geometric Mean of 10 subjects, single 1600 mg dose, Fasted, read-out: AUC0-inf): 667 ng·h/mL
- Cmax ([3]; 1600 mg, Geometric Mean of 10 subjects, single 1600 mg dose, Fasted, read-out: Cmax): 538 ng/mL
- half-life ([3]; 1600 mg, Geometric Mean of 10 subjects, single 1600 mg dose, Fasted, read-out: t½ (converted)): 2.38 h

Reference: patent publication US20090155209A1, “NOVEL MACROCYCLIC INHIBITORS OF HEPATITIS C VIRUS REPLICATION” (priority 2007, published 2009)
